Reference: patent publication US12239686B2, “Immune checkpoint inhibitor combinations” (LYTIX BIOPHARMA AS, priority 2014, dated 2025)
Non-standard residues stand in square brackets, D forms with d. Residues, ends and D or L forms follow the SMILES beside them. Dip = N[C@H](C(=O)O)C(c1ccccc1)c1ccccc1

Experiments:
A375 cells = assay: Release of cytochrome-C, ELISA of supernatant; type: cell-based, human; conditions: 35 μM; 5, 15, 45 min
Description: A375 cells were seeded as with HMGB1 studies, and treated with 35 μM for different time points (5, 15, 45). Supernatants were collected and concentrated as with HMGB1 studies, and samples from the supernatants were analyzed using a 4.5 hour solid form Cytochrome C-Elisa kit (R&D Systems, USA, #DCTC0) following the manufacturer's description. Shortly thereafter, a 50% diluted sample was analyzed and the optical density was determined using a microplate reader set at 450 nm, and […]. A standard curve was generated for each set of samples assayed. Samples were run in four parallels, and the cytochrome-c released into the supernatant was expressed as a fold over the level of cytochrome-c in the supernatant of untreated cells.

[1] = test system: murine CT26WT colon carcinoma; assay: Murine CT26WT colon carcinoma tumours in mice, intratumoural treatment; type: in vivo; conditions: for Mean tumour size (mm^2) at day 1: prior to start of treatment
Description: The administration takes place by intra-tumoural injection of LTX-315 dissolved in sterile saline (0.9% NaCl in sterile water).
The mice were divided into five groups, 8 mice in each group. When the tumours reached the desired size of 20 mm^2 the treatment by intra tumoural injection was initiated. Group one was treated solely on day 1, Group two on day 1 and 2, Group three on day 1 and 3 and Group four on day 1, 2 and 3. All daily treatments were one single injection of 1.0 mg LTX-315 dissolved in 50 μl (20 mg/ml). Group five was treated with the 50 μl of vehicle for LTX-315 (Group 5).
Weighing and physical examination were used as health controls.

[2] = test system: CT26WT colon carcinoma cells; assay: Re-challenge with CT26WT cells in mice with complete tumour regression; type: in vivo
Description: Methods: Female Balb-c mice (n=4), previously treated with LTX-315, 1 mg) or (n=9); previously treated with LTX-315 0.5 or 1 mg) were re-inoculated (s.c. in the abdominal area) with either murine A20 B cell lymphoma cells or CT26WT colon carcinoma cells (5 million) respectively 6 weeks following initial treatment with LTX-315. Tumour growth was monitored for up to 36 days following re-inoculation.

[3] = test system: murine A20 B-cell lymphoma; assay: Adoptive spleen cell transfer, A20 B-cell lymphoma model; type: in vivo, mice; conditions: donors: LTX-315 1 mg intratumoural once daily 3 days, complete regression
Description: […] Balb/c mice (n=32) were each inoculated with A20 cells (5 million in 50 μL s.c.) on the abdominal surface. Once tumours had reached 20 mm^2 they were injected with LTX-315 (1 mg) injected intratumourally, once daily for 3 days, in a volume of 50 μL. Tumour size (mm^2) and body weight were subsequently monitored and a further injection of LTX-315 was given if any tumour re-growth was observed. Subsequently, mice showing complete tumour regression were sacrificed and used as donors for transfer of splenocytes while naive donor mice were used as controls. Spleens from donor mice were excised and cells isolated. Naive receiver mice were irradiated and divided into 2 groups. Group 1 received isolated splenocytes from cured mice, whereas group 2 received isolated splenocytes from naive mice. Freshly prepared cells were injected (20×106 per 100 μl) via the tail vein. Twenty four hours later receiver mice were inoculated with 5 million murine A20 B-cell lymphoma cells on the abdominal surface as described above. Tumour size and body weight were monitored until the maximum tumour burden of ˜125 mm^2 was reached, or a serious adverse events occurred (i.e. wound formation due to tumour tissue necrosis) at which point mice were sacrificed.

[4] = test system: EMT-6 murine mammary carcinoma; assay: EMT-6 mammary carcinoma model, two-flank tumours; type: in vivo, mice
Description: The anti-PD-L1 antibody had the following characteristics: ref: BE0101, Bioxcell; clone 10F.9G2; reactivity: mouse; isotype: Rat IgG2b. LTX-315 was prepared at a dose of 0.5 mg/50 μL in 0.9% sodium chloride solution. Anti-PD-L1 antibody was prepared at a concentration in phosphate-buffered saline and was administered at a dose of 10 mg/kg. LTX-315 was injected into the tumour grafted on the right flank of the mice, anti-PD-L1 antibody was injected into the peritoneal cavity of the mice.
Induction of MET-6 tumours in mice: A first tumor was induced by subcutaneous injection of 1×10^6 of EMT-6 cells in 200 μL of RPMI 1640 into the right flank of Balb/C female mice. The day of tumor cell injection in the right flank was considered as DO. A second tumor was induced by subcutaneous injection of 1×10^5 of EMT-6 cells in 200 μL of RPMI 1640 into the left flank of Balb/C female mice. The day of tumor cell injection in the left flank was considered as D3.
Treatment schedule: Mice were randomized according to their body weight on D3 into four groups each of 5 mice (group 1) or 10 mice (groups 3, 5 and 7) using Vivo Manager® software (Biosystemes, Couternon, France). A statistical test (analysis of variance) was performed to test for homogeneity between groups. […]
Mouse monitoring: All study data, including mouse body weight measurements, tumour volume, clinical and mortality records, and treatment were scheduled and recorded on Vivo Manager® database (Biosystemes, Dijon, France). The viability and behaviour was recorded every day. Body weights were measured thrice a week. The length and width of the tumor was measured three times a week with calipers and the volume of the tumour was estimated by the following formula: tumour volume=(width2×length)/2 (SIMPSON-HERREN L. et al. Cancer Chemotherapy Rep., 54: 143, 1970).

[5] = Group 1, 1 mg intratumoural day 1
[6] = Group 2, 1 mg intratumoural days 1,2
[7] = Group 3, 1 mg intratumoural days 1,3
[8] = Group 4, 1 mg intratumoural days 1,2,3

NCCCC[C@H](NC(=O)[C@@H](NC(=O)[C@H](Cc1c[nH]c2ccccc12)NC(=O)[C@H](CCCCN)NC(=O)[C@H](CCCCN)NC(=O)[C@H](Cc1c[nH]c2ccccc12)NC(=O)[C@H](Cc1c[nH]c2ccccc12)NC(=O)[C@H](CCCCN)NC(=O)[C@@H](N)CCCCN)C(c1ccccc1)c1ccccc1)C(N)=O [LTX-315, K-K-W-W-K-K-W-Dip-K-NH2] (H-KKWWKKW[Dip]K-NH2)
cytochrome-C in the supernatant vs untreated control cells (A375 cells): three times more cytochrome-C in the supernatant compared to untreated control cells
Relapse of Tumour ([1]; Group 1, 1 mg day 1): 20%
Free of Tumour at end of Follow-Up ([1]; Group 1, 1 mg day 1, n=8): 50%
Mean tumour size (mm^2) on day 6 [1, 5]: 4.343 ± 2.295 mm^2
Mean tumour size (mm^2) on day 10 [1, 5]: 7.171 ± 4.035 mm^2
Mean tumour size (mm^2) on day 17 [1, 5]: 3.712 ± 3.712 mm^2
Mean tumour size (mm^2) at day 1 [1, 5]: 22.69 ± 0.4070 mm^2
Relapse of Tumour ([1]; Group 2, 1 mg days 1,2): 71%
Free of Tumour at end of Follow-Up ([1]; Group 2, 1 mg days 1,2, n=8): 25%
Mean tumour size (mm^2) on day 6 [1, 6]: 1.458 ± 1.458 mm^2
Mean tumour size (mm^2) on day 10 [1, 6]: 5.058 ± 4.014 mm^2
Mean tumour size (mm^2) on day 17 [1, 6]: 6.644 ± 3.430 mm^2
Mean tumour size (mm^2) at day 1 [1, 6]: 22.90 ± 1.155 mm^2
Relapse of Tumour ([1]; Group 3, 1 mg days 1,3): 29%
Free of Tumour at end of Follow-Up ([1]; Group 3, 1 mg days 1,3, n=8): 62.5%
Mean tumour size (mm^2) on day 6 [1, 7]: 2.983 ± 2.983 mm^2
Mean tumour size (mm^2) on day 10 [1, 7]: 10.85 ± 7.553 mm^2
Mean tumour size (mm^2) on day 17 [1, 7]: 0.00 ± 0.00 mm^2
Mean tumour size (mm^2) at day 1 [1, 7]: 21.43 ± 1.141 mm^2
Free of Tumour at end of Follow-Up ([1]; Group 4, 1 mg days 1,2,3, n=8): 62.5%
Tumour Response: complete response ([1]; Group 4, 1 mg days 1,2,3, n=8): 100%
Mean tumour size (mm^2) on day 6 [1, 8]: 0.00 ± 0.00 mm^2
Mean tumour size (mm^2) on day 10 [1, 8]: 0.00 ± 0.00 mm^2
Mean tumour size (mm^2) on day 17 [1, 8]: 1.308 ± 1.308 mm^2
Mean tumour size (mm^2) at day 1 [1, 8]: 24.09 ± 1.653 mm^2
treated animals observed with a complete tumour response ([1]; all four LTX-315 groups together): 27 of the 32
toxic or other adverse effects ([1]; all treated groups): No toxic or other adverse effects besides local necrotic tissue and wound formation were observed
tumour growth after re-inoculation in comparison with control animals ([2]; 9 mice previously treated with LTX-315 0.5 or 1 mg, P<0.01): inhibition (P<0.01) of tumour growth was observed
animals with complete regression after re-inoculation ([2]; of 9 re-inoculated mice): 2 animals
mice in which inhibition was observed after re-inoculation ([2]; of 9 re-inoculated mice): 7 mice
tumour growth in irradiated recipients of splenocytes from LTX-315-cured donors vs naive donors [3]: Inhibition of tumour growth was observed
test mice surviving for more than 50 days after tumour induction ([4]; LTX-315 0.5 mg i.t. Q1Dx3, anti-PD-L1 10 mg/kg IP Q2Dx6): 30%
Proportion of Mice with total tumour regression, Right flank ([4]; treated flank, day 52 or when sacrificed): 30%
Proportion of Mice with total tumour regression, Left flank ([4]; untreated flank, day 52 or when sacrificed): 10%
